Reference: the supplement of paper PMC11451515

Tested on: NOMO1
Assay: cell viability relative to DMSO control; higher = less cytotoxic
Conditions: 48 h
Summary of the method: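 NOMO1 or SEM (500 cells/well) or P12-Ichikawa (1000 cells/well) leukemia cells were adapted for at least four passages in each medium. They were seeded in 1536-well plates (5 μl) and pin-dosed with library compounds in DMSO over an 11-point threefold series, 47 μM to 0.79 nM. CellTiter-Glo One luminescence was read after 48 h at 37°C. Viability is the per-plate percentage relative to DMSO wells, with cell-free wells as background.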

[1] = RPMI 5 mM glucose + 10% FBS, 0.000781 µM
[2] = RPMI 5 mM glucose + 10% FBS, 0.00234 µM
[3] = RPMI 5 mM glucose + 10% FBS, 0.00702 µM
[4] = RPMI 5 mM glucose + 10% FBS, 0.0211 µM
[5] = RPMI 5 mM glucose + 10% FBS, 0.0632 µM
[6] = RPMI 5 mM glucose + 10% FBS, 0.19 µM
[7] = RPMI 5 mM glucose + 10% FBS, 0.569 µM
[8] = RPMI 5 mM glucose + 10% FBS, 1.71 µM
[9] = RPMI 5 mM glucose + 10% FBS, 5.12 µM
[10] = RPMI 5 mM glucose + 10% FBS, 15.4 µM
[11] = RPMI 5 mM glucose + 10% FBS, 46.1 µM
[12] = HPLM + 10% dialyzed FBS, 0.000781 µM
[13] = HPLM + 10% dialyzed FBS, 0.00234 µM
[14] = HPLM + 10% dialyzed FBS, 0.00702 µM
[15] = HPLM + 10% dialyzed FBS, 0.0211 µM
[16] = HPLM + 10% dialyzed FBS, 0.0632 µM
[17] = HPLM + 10% dialyzed FBS, 0.19 µM
[18] = HPLM + 10% dialyzed FBS, 0.569 µM
[19] = HPLM + 10% dialyzed FBS, 1.71 µM
[20] = HPLM + 10% dialyzed FBS, 5.12 µM
[21] = HPLM + 10% dialyzed FBS, 15.4 µM
[22] = HPLM + 10% dialyzed FBS, 46.1 µM
[23] = RPMI 5 mM glucose + 10% dialyzed FBS, 0.000781 µM
[24] = RPMI 5 mM glucose + 10% dialyzed FBS, 0.00234 µM
[25] = RPMI 5 mM glucose + 10% dialyzed FBS, 0.00702 µM
[26] = RPMI 5 mM glucose + 10% dialyzed FBS, 0.0211 µM
[27] = RPMI 5 mM glucose + 10% dialyzed FBS, 0.0632 µM
[28] = RPMI 5 mM glucose + 10% dialyzed FBS, 0.19 µM
[29] = RPMI 5 mM glucose + 10% dialyzed FBS, 0.569 µM
[30] = RPMI 5 mM glucose + 10% dialyzed FBS, 1.71 µM
[31] = RPMI 5 mM glucose + 10% dialyzed FBS, 5.12 µM
[32] = RPMI 5 mM glucose + 10% dialyzed FBS, 15.4 µM
[33] = RPMI 5 mM glucose + 10% dialyzed FBS, 46.1 µM

| SMILES | cell viability [1] | cell viability [2] | cell viability [3] | cell viability [4] | cell viability [5] | cell viability [6] | cell viability [7] | cell viability [8] | cell viability [9] | cell viability [10] | cell viability [11] | cell viability [12] | cell viability [13] | cell viability [14] | cell viability [15] | cell viability [16] | cell viability [17] | cell viability [18] | cell viability [19] | cell viability [20] | cell viability [21] | cell viability [22] | cell viability [23] | cell viability [24] | cell viability [25] | cell viability [26] | cell viability [27] | cell viability [28] | cell viability [29] | cell viability [30] | cell viability [31] | cell viability [32] | cell viability [33] |
| --- | --- | --- | --- | --- | --- | --- | --- | --- | --- | --- | --- | --- | --- | --- | --- | --- | --- | --- | --- | --- | --- | --- | --- | --- | --- | --- | --- | --- | --- | --- | --- | --- | --- |
| CC[C@@H]1[C@@H](C)O[C@@](O)([C@@H](C)[C@H](O)[C@H](C)[C@H]2OC(=O)/C=C/C=C/[C@H](C)[C@@H]([C@@H](C)[C@@H](O)[C@H](C)[C@@]3(O)C[C@@H](O[C@H]4C[C@H](O)[C@H](O)[C@H](C)O4)[C@H](CC)[C@@H](C)O3)OC(=O)/C=C/C=C/[C@@H]2C)C[C@H]1O[C@H]1C[C@H](O)[C@H](O)[C@H](C)O1 | 111% | 117% | 129% | 121% | 118% | 132% | 128% | 121% | 6.11% | 17.5% | 2.97% | – | – | – | – | – | – | – | – | – | – | – | – | – | – | – | – | – | – | – | – | – | – |
| O=C(Nc1nnc(-c2ccco2)o1)c1cc(-c2ccccc2)nc2ccccc12 | 107% | 101% | 99.9% | 105% | 100% | 101% | 93% | 111% | 98.3% | 99.3% | 13.7% | 92.3% | 103% | 117% | 124% | 118% | 120% | 114% | 114% | 65.5% | 18.7% | 6.68% | 102% | 89.3% | 107% | 96.2% | 103% | 112% | 93.4% | 117% | 118% | 106% | 13.5% |
| CC(C)=CCC/C(C)=C/CC/C(C)=C/CSc1ccccc1C(=O)O | 103% | – | 104% | 103% | 96.1% | 99.1% | 96.2% | 95.2% | 86.8% | 67.9% | 43.5% | 93.2% | 119% | 104% | 104% | 116% | 102% | 90.4% | 68.8% | 76.4% | 57.4% | 29.8% | 98.2% | 103% | 109% | 106% | 116% | 97% | 87% | 77.1% | 61.8% | 64% | 39.3% |
| COc1cc([C@@H]2c3cc4c(cc3[C@H](O)[C@H]3COC(=O)[C@@H]23)OCO4)cc(OC)c1OC | 84.2% | 87.9% | 86.5% | 99.2% | 92.7% | 85.7% | 39.9% | 12.5% | 19.3% | 16.6% | 16% | 89.1% | 102% | 93.4% | 105% | 91.6% | 76.8% | 32.5% | 26.3% | 33.8% | 23.9% | 25.2% | 92% | 81.5% | 92.9% | 90% | 93.6% | 91.3% | 47.7% | 20% | 19.4% | 20.2% | 17.5% |
| N\C1=N\C2=C(N=C[N]2COCCO)C(=O)N1 | 106% | 96.8% | 109% | 109% | 103% | 95.4% | 98.1% | 103% | 103% | 97.4% | 96.9% | 93.1% | 106% | 123% | 112% | 103% | 119% | 104% | 125% | 98.3% | 102% | 73.4% | 112% | 101% | 103% | 97.8% | 93.8% | 113% | 106% | 109% | 107% | 100% | 71.5% |
| CC1=C(/C=C/C(C)=C/C=C/C(C)=C\C(=O)O)C(C)(C)CCC1 | 75.9% | 82.4% | 78.7% | 86.3% | 89.5% | 97.2% | 93.6% | 84.1% | 84.3% | 86.6% | 80.5% | 85.3% | 99.5% | 85.6% | 92.5% | 105% | 96.2% | 97.1% | 84.3% | 84.2% | 83.4% | 97.4% | 82% | 90.6% | 86% | 102% | 93.2% | 87.9% | 95.1% | 87.2% | 76.6% | 87.1% | 77.3% |
| O=C/1NC(=O)C(=C1C2=CN=C3C=CC=C[N]23)/C4=C[N]5CCN(CC6=C5C4=CC=C6)C(=O)N7CCOCC7 | 109% | 121% | 137% | 136% | 140% | 146% | 144% | 127% | 144% | 128% | 144% | – | – | – | – | – | – | – | – | – | – | – | – | – | – | – | – | – | – | – | – | – | – |
| CC1(CN2CCC(n3c(=O)[nH]c4ccccc43)CC2)OCc2ccccc2-n2cccc21 (stereo unspecified) | 86.7% | 103% | 95.4% | 91.4% | 104% | 107% | 91.3% | 96% | 92.5% | 87.8% | 84% | 128% | 108% | 102% | 105% | 96.8% | 105% | 104% | 108% | 102% | 59.3% | 75.6% | 105% | 111% | 103% | 93.2% | 96.7% | 98.2% | 95.9% | 92.4% | 90.9% | 79.5% | 68.5% |
| CC[N+](CC)(CC)CCOc1cccc(OCC[N+](CC)(CC)CC)c1OCC[N+](CC)(CC)CC | 106% | 118% | 108% | 118% | 136% | 110% | 98% | 98.9% | 104% | 112% | 75.7% | – | – | – | – | – | – | – | – | – | – | – | 116% | 118% | 115% | 109% | 127% | 114% | 99.4% | 100% | 111% | 101% | 91% |
